{
  "source": "patent US12691124B2",
  "about": "“Methods of controlling and improving brain health” (ICAHN SCHOOL OF MEDICINE AT MOUNT SINAI, priority 2019, dated 2026)",
  "key": {"C57bl/6 mice": {"tested_on": "C57bl/6 mice", "assay": "Kainic acid injection in the hippocampus, cCASP3 immunostaining", "format": "in vivo, mouse", "settings": "30 mg/kg i.p. daily 1 week, then kainic acid, 24 h", "protocol": "C57bl/6 mice were daily treated with IBET858 (30 mg/kg, i.p.) for 1 week, followed by stereotaxic injection of kainic acid in the hippocampus. Mice were perfused 24 hours after kainic acid injection and brains were immunostained for cCASP3 to identify dying cells."}, "BRD4": {"biological_target": "T1, BRD4 (Mus musculus, UniProt Q9ESU6)", "T1 construct": "Primary cortical neurons express BRD2/3/4, with BRD2 and BRD4 being the most abundant; endogenous in cells; host or cells: primary cortical neuronal cultures (mouse)", "assay": "ChIP sequencing of BRD4 chromatin occupancy in neurons", "format": "cell-based", "protocol": "Chromatin Immunoprecipitation with Sequencing. Primary cortical neuronal cultures were washed once with PBS then fixed for 10 minutes with a 1% formaldehyde solution in PBS with protease inhibitors (Sigma #P8340) at room temperature. Fixation was quenched adding glycine to a final concentration of 0.125M (5 minutes, room temperature). 10e6 fixed cells were resuspended in 1 ml of lysis buffer (50 mM Hepes KOH, pH7.5, 140 mM NaCl, 1 mM EDTA, 10% glycerol, 0.5% NP-40, 0.25% Triton X-100) and 10 ul of protease inhibitor cocktail (PIC). Samples were rotated for 10 minutes at 4 degrees then spun at 1350 g at 4 C for 10 minutes. Pellets were resuspended in 1 ml of lysis buffer 2 (10 mM Tris-HCl pH8.0, 200 mM NaCl, 1 mM EDTA, 0.5 mM EGTA) and 10 ul PIC.). 5e6 nuclei were sonicated in lysis buffer 3 (10 mM Tris-HCl pH8.0, 100 mM NaCl, 1 mM EDTA, 0.5 mM EGTA, 0.1% Na-Deoxicholate, 0.5% N-Lauroylsarcosine) at 4 degrees for 5 cycles of 30 seconds ON/30 seconds OFF using the Diagenode bioruptor. After, 30 ul of 10% Triton-X100 was added to each sample and then spun for 15 minutes at 20,000 g at 4 degrees. Sonication efficiency was checked by running the samples on a 2% agarose gel to confirm enrichment for fragments from 200-500 bps.\nStreptavidin M-280 dynabeads were blocked with 0.5% BSA solution and coupled to 7 ug of antibody (Brd4 #Ab84778, Brd2 Bethyl #A302-583A, Pol2 Ser5 #Ab5408) for at least 8 hours at 4 degrees, rotating. Antibody-coupled beads were then added to sonicated chromatin (20e6 cells for Brd2/Brd4, 10e6 for Pol2) and incubated overnight at 4 degrees. After washing the IPs eight times with wash buffer (50 mM Hepes-KOH pH7.6, 100 mM LiCl, 1 mM EDTA, 1% NP-40, 0.7% Na-Deoxycholate) and once with TE buffer (10 mM Tris-HCl, 1 mM EDTA, 50 mM NaCl), Chromatin was eluted from magnetic beads in 200 ul elution buffer ([…] Tris-HCl pH8.0, 10 mM EDTA, 1% SDS) for 45 minutes at 65 degrees. Samples were de-crosslinked overnight at 65 degrees and proteins and RNA were removed by incubating with RNAse and proteinase k. Samples were purified using the Qiagen PCR purification kit according to the manufacturers protocol.\nSamples were end-repaired using the End-IT DNA End-Repair Kit (#ER0720). After 45 minutes incubation, samples were purified using the Qiagen PCR Clean up kit as described above. Samples were adenylated using a reaction mix (200 uM dATP, 1× Klenow buffer NEB2, Klenow Fragment (3′ to 5′ exo-), NEB M0212L) and incubating at 37 degrees for 30 minutes. […] Raw sequencing reads were then aligned to the mouse mm9 genome using the default settings of Bowtie (v2.2.0)87. Only uniquely mapped reads were retained, and the alignments were subsequently filtered using the SAMtools package (v0.1.19)88 to remove duplicate reads. […]"}},
  "data": [
    {"smiles": "CC(=O)N1c2ccc(-c3ccc(CN4CCCCC4)cc3)cc2[C@H](Nc2ccccc2)CC1C", "note": "(stereo in doubt) [IBET858]", "values": [
      {"measurement": "glutamate-induced toxicity in vivo (cCASP3 dying cells)", "setting": "C57bl/6 mice", "value": "protects neurons from glutamate-induced toxicity in vivo"},
      {"measurement": "genes that lose BRD4 at the transcriptional start site", "setting": "BRD4; 6 h IBET858", "value": 2226, "unit": "genes"},
      {"measurement": "genes with gain of BRD4 at the transcriptional start site", "setting": "BRD4; 6 h IBET858", "value": 295, "unit": "genes"},
      {"measurement": "loci with reduced occupancy of BRD4", "setting": "BRD4; DIV7, 6 h IBET858", "value": 4756, "unit": "loci"},
      {"measurement": "loci with increased occupancy of BRD4", "setting": "BRD4; day 7, 6 h IBET858", "value": 1827, "unit": "loci"}
    ]}
  ]
}
